Test results published in PubChem BioAssay AID434987 (Southern Research Specialized Biocontainment Screening …, 2010).
Calls of active or inactive are those of the source. No rule for the calls is given here.

System: M. tuberculosis H37Rv growth inhibition with meropenem
Experiment: dose response, H37Rv, with and without meropenem (AID 434987);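 also: growth over 7 days at 37 °C before Alamar Blue read on day 9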
[1] = M. tuberculosis H37Rv growth inhibition, measured here: IC50 without meropenem
[2] = M. tuberculosis H37Rv growth inhibition, measured here: IC90 without meropenem
[3] = measured here: IC90 with meropenem

SMILES	IC50	IC50 [1] [µM]	IC90 [2] [µM]	IC90 [3] [µM]
COc1cccc(CNC(=O)C(Cc2ccccc2)n2cccc2)c1 (configuration not stated)	50.7 µM (inactive)	67.4	> 100	> 100
CCn1cc(C(=O)O)c(=O)c2cc(F)c(N3CCN(C(=S)NC(=O)c4ccccc4C)CC3)cc21	10.9 µM (inactive)	19.5	28.3	16
O=C1NC(=O)N(Cc2ccco2)C(=O)/C1=C\c1ccc(-c2ccc(F)cc2)o1	80.7 µM (inactive)	84.5	> 100	> 100
Cc1cc(Br)ccc1NC(=O)CN1C(=O)C2CC=CCC2C1=O (configuration not stated)	1 µM	8.65	26.7	38.7
COc1cc(NC(=O)c2cc(-c3cccnc3)nc3ccc(Br)cc23)cc(OC)c1	> 100 µM (inactive)	> 100	> 100	> 100
Cc1cc(C(=O)CN2C(=O)NC(c3ccccc3)(c3ccccc3)C2=O)c(C)n1Cc1ccccc1	> 100 µM (inactive)	> 100	> 100	> 100
Cc1ccc(-c2[nH][nH]c(=O)c(=O)c2N=Nc2ccccc2)cc1	4.12 µM	51.7	> 100	86.2
COC(=O)c1cc(OC)c(OC)cc1NC(=O)c1ccc(OC)c(OC)c1	31.8 µM	> 100	> 100	> 100
CSc1ccc(-c2nnn(CC(=O)NCc3ccccc3)n2)cc1	15.8 µM	> 100	> 100	> 100
Cc1ccc(S(=O)(=O)NCCCCCC(=O)Nc2ccccn2)cc1	> 100 µM (inactive)	> 100	> 100	> 100
COc1cc(OC)c2ccc(=O)oc2c1C(CC(=O)N1CCN(c2ccccc2)CC1)c1ccc2c(c1)OCO2 (configuration not stated)	91.1 µM (inactive)	> 100	> 100	> 100
CCCC(C)NC(=O)c1ccc(OCc2ccc(Cl)cc2)c(OC)c1 (configuration not stated)	7.56 µM	36.2	> 100	11.6
COc1cc(NC(=O)c2ccccc2)c(OC)cc1NC(=O)CN1CCOCC1	14.5 µM (inactive)	32.1	> 100	69.2
OC1C(O)C(O)C(O)C(O)C1O (configuration not stated)	> 100 µM (inactive)	> 100	> 100	> 100
O=C1/C(=C/c2ccncc2)CCc2ccccc21	16.8 µM (inactive)	24.3	36.4	29.1
CCOC(=O)N1CCN(CC(=O)Nc2nnc(C(F)(F)F)s2)CC1	27.8 µM	> 100	> 100	50.1
COC(=O)c1ccc(/C=N\NC(=O)c2ccc(C)cc2Cl)cc1	> 100 µM (inactive)	> 100	> 100	> 100
Cc1cc(C)c2c(N)c(S(=O)c3ccc(C(C)(C)C)cc3)sc2n1 (configuration not stated)	> 100 µM (inactive)	> 100	> 100	> 100
CCc1sc2nc(SCC(=O)Nc3cc(C)on3)n(-c3cccc(OC)c3)c(=O)c2c1C	> 100 µM (inactive)	> 100	> 100	> 100
O=C(c1cccc(Cl)c1)N1CCN(Cc2ccccc2F)CC1	> 100 µM (inactive)	> 100	> 100	> 100
CCC(CC)C(=O)Nc1ccc(Sc2ccc([N+](=O)[O-])cc2)cc1	> 100 µM (inactive)	> 100	> 100	> 100
CC(C)CCSc1nc(N2CCOCC2)c2c(c1C#N)CC(C)(C)OC2	78.2 µM (inactive)	> 100	> 100	> 100
CCOC(=O)N1CCN(C(=O)CSc2nnc(-c3ccccc3OC)o2)CC1	6.68 µM	30	62.6	> 100
